Test results taken from PubChem BioAssay AID2060484 (Molecular Pharmacology Branch, DTP, NCI, 2025).

Test system: SUM149PT spheroids with HUVEC/MSC, viability
Assay: Anticancer human tumor SUM149PT cell line growth inhibition [GQUAD];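 further: spheroids exposed to drugs for seven days before readout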;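 on viability, T/C: percent viability relative to DMSO vehicle control taken as 100%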
Details: for IC50: curve of first compound; for viability, T/C: stronger effect = lower value
In short: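 Viability of tumor cells grown as complex spheroids with endothelial and stromal cells, exposed to drug combinations. Top concentration at or near clinical Cmax (else 10 microM), diluted in half-log increments.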

[1] = second compound 0.0316 µM, first compound 0.0316 µM
[2] = second compound 0.0316 µM, first compound 0.1 µM
[3] = second compound 0.0316 µM, first compound 0.316 µM
[4] = second compound 0.0316 µM, first compound 1 µM
[5] = second compound 0.0316 µM, first compound 3.16 µM
[6] = second compound 0.0316 µM, first compound 10 µM
[7] = second compound 0.1 µM, first compound 0.0316 µM
[8] = second compound 0.1 µM, first compound 0.1 µM
[9] = second compound 0.1 µM, first compound 0.316 µM
[10] = second compound 0.1 µM, first compound 1 µM
[11] = second compound 0.1 µM, first compound 3.16 µM
[12] = second compound 0.1 µM, first compound 10 µM
[13] = second compound 0.316 µM, first compound 0.0316 µM
[14] = second compound 0.316 µM, first compound 0.1 µM
[15] = second compound 0.316 µM, first compound 0.316 µM
[16] = second compound 0.316 µM, first compound 1 µM
[17] = second compound 0.316 µM, first compound 3.16 µM
[18] = second compound 0.316 µM, first compound 10 µM
[19] = second compound 1 µM, first compound 0.0316 µM
[20] = second compound 1 µM, first compound 0.1 µM
[21] = second compound 1 µM, first compound 0.316 µM
[22] = second compound 1 µM, first compound 1 µM
[23] = second compound 1 µM, first compound 3.16 µM
[24] = second compound 1 µM, first compound 10 µM
[25] = second compound 3.16 µM, first compound 0.0316 µM
[26] = second compound 3.16 µM, first compound 0.1 µM
[27] = second compound 3.16 µM, first compound 0.316 µM
[28] = second compound 3.16 µM, first compound 1 µM
[29] = second compound 3.16 µM, first compound 3.16 µM
[30] = second compound 3.16 µM, first compound 10 µM
[31] = second compound 10 µM, first compound 0.0316 µM
[32] = second compound 10 µM, first compound 0.1 µM
[33] = second compound 10 µM, first compound 0.316 µM
[34] = second compound 10 µM, first compound 1 µM
[35] = second compound 10 µM, first compound 3.16 µM
[36] = second compound 10 µM, first compound 10 µM

**Q.** C=CC(=O)N1CCN(c2nc(=O)n(-c3c(C)ccnc3C(C)C)c3nc(-c4c(O)cccc4F)c(F)cc23)C(C)C1 (centres undefined) + CN(C)c1ccc(Nc2c3ccc(NC(=O)CCN4CCCC4)cc3nc3cc(NC(=O)CCN4CCCC4)ccc23)cc1 was tested. Which IC50 (second compound 0.0316 µM) did it give?
**A.** The IC50 was > 10 µM.

**Q.** What about the IC50 (second compound 0.1 µM) of the same compound?
**A.** Its IC50 is > 10 µM.

**Q.** And the IC50 (second compound 0.316 µM)?
**A.** The IC50 was > 10 µM.

**Q.** And the IC50 (second compound 1 µM)?
**A.** The IC50 was > 10 µM.

**Q.** And the IC50 (second compound 3.16 µM)?
**A.** The IC50 was > 10 µM.

**Q.** And the IC50 (second compound 10 µM)?
**A.** The IC50 was > 10 µM.

**Q.** What about the viability, T/C [1] of the same compound?
**A.** The viability, T/C was 106%.

**Q.** What about the viability, T/C [2] of the same compound?
**A.** The viability, T/C was 101%.

**Q.** What about the viability, T/C [3] of the same compound?
**A.** Its viability, T/C is 105%.

**Q.** And the viability, T/C [4]?
**A.** The viability, T/C was 110%.

**Q.** And the viability, T/C [5]?
**A.** Its viability, T/C is 122%.

**Q.** And the viability, T/C [6]?
**A.** Its viability, T/C is 101%.

**Q.** What about the viability, T/C [7] of the same compound?
**A.** Its viability, T/C is 99.7%.

**Q.** What about the viability, T/C [8] of the same compound?
**A.** Its viability, T/C is 102%.

**Q.** What about the viability, T/C [9] of the same compound?
**A.** Its viability, T/C is 98.2%.

**Q.** What about the viability, T/C [10] of the same compound?
**A.** Its viability, T/C is 113%.

**Q.** What about the viability, T/C [11] of the same compound?
**A.** The viability, T/C was 115%.

**Q.** And the viability, T/C [12]?
**A.** Its viability, T/C is 108%.

**Q.** What about the viability, T/C [13] of the same compound?
**A.** The viability, T/C was 96.1%.

**Q.** And the viability, T/C [14]?
**A.** Its viability, T/C is 93.9%.

**Q.** What about the viability, T/C [15] of the same compound?
**A.** The viability, T/C was 110%.

**Q.** What about the viability, T/C [16] of the same compound?
**A.** Its viability, T/C is 114%.

**Q.** And the viability, T/C [17]?
**A.** Its viability, T/C is 111%.

**Q.** What about the viability, T/C [18] of the same compound?
**A.** The viability, T/C was 101%.

**Q.** What about the viability, T/C [19] of the same compound?
**A.** The viability, T/C was 96.5%.

**Q.** What about the viability, T/C [20] of the same compound?
**A.** The viability, T/C was 86.5%.

**Q.** What about the viability, T/C [21] of the same compound?
**A.** The viability, T/C was 95.4%.

**Q.** What about the viability, T/C [22] of the same compound?
**A.** Its viability, T/C is 103%.

**Q.** And the viability, T/C [23]?
**A.** The viability, T/C was 113%.

**Q.** And the viability, T/C [24]?
**A.** The viability, T/C was 96.7%.

**Q.** What about the viability, T/C [25] of the same compound?
**A.** Its viability, T/C is 88.3%.

**Q.** And the viability, T/C [26]?
**A.** Its viability, T/C is 89.9%.

**Q.** And the viability, T/C [27]?
**A.** Its viability, T/C is 103%.

**Q.** And the viability, T/C [28]?
**A.** Its viability, T/C is 104%.

**Q.** And the viability, T/C [29]?
**A.** Its viability, T/C is 106%.

**Q.** And the viability, T/C [30]?
**A.** Its viability, T/C is 85.4%.

**Q.** What about the viability, T/C [31] of the same compound?
**A.** Its viability, T/C is 86.8%.

**Q.** And the viability, T/C [32]?
**A.** Its viability, T/C is 82.9%.

**Q.** And the viability, T/C [33]?
**A.** The viability, T/C was 92.6%.

**Q.** And the viability, T/C [34]?
**A.** The viability, T/C was 90%.

**Q.** And the viability, T/C [35]?
**A.** Its viability, T/C is 100%.

**Q.** And the viability, T/C [36]?
**A.** Its viability, T/C is 69.2%.

**Q.** Which IC50 (second compound 0.0316 µM) does the source give for CC(=O)O[C@H]1C(=O)[C@@]2(C)[C@H]([C@H](OC(=O)c3ccccc3)[C@]3(O)C[C@H](OC(=O)[C@H](O)[C@@H](NC(=O)c4ccccc4)c4ccccc4)C(C)=C1C3(C)C)[C@]1(OC(C)=O)CO[C@@H]1C[C@@H]2O + CN(C)c1ccc(Nc2c3ccc(NC(=O)CCN4CCCC4)cc3nc3cc(NC(=O)CCN4CCCC4)ccc23)cc1 here?
**A.** The IC50 was < 0.0316 µM.

**Q.** And the IC50 (second compound 0.1 µM)?
**A.** Its IC50 is < 0.0316 µM.

**Q.** What about the IC50 (second compound 0.316 µM) of the same compound?
**A.** Its IC50 is < 0.0316 µM.

**Q.** What about the IC50 (second compound 1 µM) of the same compound?
**A.** The IC50 was < 0.0316 µM.

**Q.** And the IC50 (second compound 3.16 µM)?
**A.** Its IC50 is < 0.0316 µM.

**Q.** And the IC50 (second compound 10 µM)?
**A.** The IC50 was < 0.0316 µM.

**Q.** And the viability, T/C [1]?
**A.** The viability, T/C was 31.9%.

**Q.** What about the viability, T/C [2] of the same compound?
**A.** Its viability, T/C is 25.3%.

**Q.** What about the viability, T/C [3] of the same compound?
**A.** Its viability, T/C is 23.8%.

**Q.** And the viability, T/C [4]?
**A.** Its viability, T/C is 19.5%.

**Q.** And the viability, T/C [5]?
**A.** The viability, T/C was 19.8%.

**Q.** What about the viability, T/C [6] of the same compound?
**A.** The viability, T/C was 23.6%.

**Q.** And the viability, T/C [7]?
**A.** The viability, T/C was 32.8%.

**Q.** What about the viability, T/C [8] of the same compound?
**A.** The viability, T/C was 24.7%.

**Q.** And the viability, T/C [9]?
**A.** Its viability, T/C is 21.6%.

**Q.** And the viability, T/C [10]?
**A.** Its viability, T/C is 17.8%.

**Q.** What about the viability, T/C [11] of the same compound?
**A.** Its viability, T/C is 19.6%.

**Q.** What about the viability, T/C [12] of the same compound?
**A.** Its viability, T/C is 25.7%.

**Q.** And the viability, T/C [13]?
**A.** Its viability, T/C is 30.6%.

**Q.** And the viability, T/C [14]?
**A.** The viability, T/C was 25.6%.

**Q.** What about the viability, T/C [15] of the same compound?
**A.** The viability, T/C was 22.8%.

**Q.** What about the viability, T/C [16] of the same compound?
**A.** Its viability, T/C is 18.3%.

**Q.** What about the viability, T/C [17] of the same compound?
**A.** Its viability, T/C is 17.2%.

**Q.** And the viability, T/C [18]?
**A.** The viability, T/C was 22.8%.

**Q.** And the viability, T/C [19]?
**A.** Its viability, T/C is 29.6%.

**Q.** What about the viability, T/C [20] of the same compound?
**A.** Its viability, T/C is 24.4%.

**Q.** And the viability, T/C [21]?
**A.** Its viability, T/C is 16.5%.

**Q.** What about the viability, T/C [22] of the same compound?
**A.** The viability, T/C was 13.8%.

**Q.** And the viability, T/C [23]?
**A.** The viability, T/C was 17%.

**Q.** What about the viability, T/C [24] of the same compound?
**A.** The viability, T/C was 19.2%.

**Q.** And the viability, T/C [25]?
**A.** The viability, T/C was 27.7%.

**Q.** And the viability, T/C [26]?
**A.** The viability, T/C was 21.1%.

**Q.** And the viability, T/C [27]?
**A.** The viability, T/C was 17.5%.

**Q.** And the viability, T/C [28]?
**A.** Its viability, T/C is 12.9%.

**Q.** And the viability, T/C [29]?
**A.** The viability, T/C was 15.7%.

**Q.** And the viability, T/C [30]?
**A.** Its viability, T/C is 16.2%.

**Q.** What about the viability, T/C [31] of the same compound?
**A.** Its viability, T/C is 26.8%.

**Q.** What about the viability, T/C [32] of the same compound?
**A.** Its viability, T/C is 23.3%.

**Q.** What about the viability, T/C [33] of the same compound?
**A.** The viability, T/C was 15.8%.

**Q.** And the viability, T/C [34]?
**A.** The viability, T/C was 14.5%.

**Q.** What about the viability, T/C [35] of the same compound?
**A.** The viability, T/C was 15.7%.

**Q.** What about the viability, T/C [36] of the same compound?
**A.** The viability, T/C was 18.2%.
